We go through three molecules from US10253081B2, “Glucagon analogues” (Zealand Pharma A/S, priority 2012, dated 2019).

Common to all, as to format: cell-based
Assay [1] deals with T1, endogenous glucagon receptor (Rattus norvegicus, UniProt P30082).
T1 construct: Agonistic activity of the test compounds on endogenous glucagon receptor; endogenous in cells; host or cells: primary rat hepatocytes
Briefly: Agonistic activity on endogenous glucagon receptor (glycogen synthesis rate in primary rat hepatocytes). Conditions: inhibition of glycogen synthesis rate, 3 hours, read-out: EC50 GLP-1R Rat hepat. On the procedure: Agonistic activity of the test compounds on endogenous glucagon receptor was determined by measuring their effect on rate of glycogen synthesis in primary rat hepatocytes. Upon activation of the glucagon receptor, an inhibition of the glycogen synthesis rate is expected. Rate of glycogen synthesis was determined by counting the amount of radioactively labeled glucose incorporated into the cellular glycogen stores in a defined period of time.
Primary rat hepatocytes were cultured at a density of 40,000 cells/well in a 24-well plate for 24 hours at 37° C. and 5% CO2.
Medium was discarded and the cells washed with PBS. 180 μL of KRBH-based buffer containing 0.1% BSA and glucose at a concentration of 22.5 mM was then added to the wells, followed by test compound and 40 μCi/ml D-[U14C] glucose (20 μL each). Incubation was continued for 3 hours.
At the end of the incubation period, the incubation buffer was aspirated and cells washed once with ice-cold PBS before lysis by incubation for 30 min at room temperature with 100 μL 1 mol/l NaOH.
Cell lysates were transferred to 96-well filter plates and glycogen precipitated by incubating the filter-plates for 120 min at 4° C. followed by washing the filter plates 4 times with ice-cold ethanol (70%). The resulting precipitates were filtered to dryness and the amount of incorporated ^14C-glucose determined by using a Topcount scintillation counter according to manufacturer's recommendations.
Wells with vehicle controls (0.1% (v/v) DMSO in KRBH buffer) were included as reference for non-inhibited glycogen synthesis (100% CTL). Wells without added D-[U^14C] glucose were included as controls for non-specific background signal (subtracted from all values). Endogenous glucagon peptide was used as a positive control.
All treatments were performed at least in triplicates.
Parameters calculated to describe the both the potency as well as the agonistic activity of each test compound on the endogenous glucagon receptor are pEC50 and % CTL. % CTL is determined by calculating the percentage of CPM/well in the presence of the test compound compared to the CPM/well of the vehicle control after subtracting the background CPM/well: [CPM/well(basal)−CPM/well(sample)]*100/[CPM/well(basal)−CPM/well(control)]
An activator of the glucagon receptor will result in an inhibition of the glycogen synthesis rate and will give % CTL values between 0% CTL (complete inhibition) and 100% CTL (no observable inhibition).
The resulting activity curves were plotted as absolute counts (unit: cpm/sample) over log (test compound concentration) and analyzed using the curve fitting program XLfit.
pEC50 (negative logarithmic value of EC50) reflects the potency of the test compound.
The terms EC50 and pEC50 quoted in relation to GLP-1R activation could equally be regarded as IC50 and pIC50 in relation to glycogen synthesis.

For assay [2], the target named is T2, human glucagon receptor (Glucagon-R) (Homo sapiens, UniProt P47871).
T2 construct: expressed in transfected cells
T2 sequence (P47871 26-477): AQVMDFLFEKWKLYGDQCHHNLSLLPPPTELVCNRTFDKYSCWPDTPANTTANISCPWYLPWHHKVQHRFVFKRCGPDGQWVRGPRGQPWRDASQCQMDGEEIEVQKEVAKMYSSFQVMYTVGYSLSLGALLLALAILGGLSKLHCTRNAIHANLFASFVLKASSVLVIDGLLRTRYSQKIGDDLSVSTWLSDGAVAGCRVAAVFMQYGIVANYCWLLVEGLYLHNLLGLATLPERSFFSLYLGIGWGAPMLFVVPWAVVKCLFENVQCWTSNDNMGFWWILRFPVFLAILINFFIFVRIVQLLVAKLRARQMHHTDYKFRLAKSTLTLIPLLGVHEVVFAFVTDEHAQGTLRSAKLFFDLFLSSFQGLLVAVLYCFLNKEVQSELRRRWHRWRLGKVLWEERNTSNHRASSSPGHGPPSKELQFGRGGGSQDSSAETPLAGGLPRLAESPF
Put plainly: Glucagon receptor efficacy assay (cAMP AlphaScreen, CHO cells). Conditions: Table 1B; same protocol, different laboratory; read-out: EC50 hGCGR CHO-K1. The text has this:
(§1) The cDNA encoding either the human glucagon receptor (Glucagon-R) (primary accession number P47871) or the human glucagon-like peptide 1 receptor (GLP-1R) (primary accession number P43220) were synthesized and cloned into a mammalian expression vector containing a Zeocin resistance marker.
(§2) The mammalian expression vectors encoding the Glucagon-R or the GLP-1-R were transfected into Chinese hamster ovary (CHO) cells by the Attractene method method. Stably expressing clones were obtained by Zeocin selection (250 μg/mL) upon limited dilution of cells resistant to the selection pressure. Glucagon-R and GLP-1-R cell clones expressing were picked, propagated and tested in the Glucagon-R and GLP-1-R efficacy assays as described below. One Glucagon-R expressing clone and one GLP-1-R expressing clone were chosen for compound profiling.
(§3) CHO cells expressing the human Glucagon-R, or human GLP-1-R were seeded 24 hours prior to the assay at 30,000 cells per well in 96-well microtiter plates in culture in 100 μl growth medium. On the day of analysis, growth medium was removed and the cells were washed once with 200 μl of assay buffer (Krebs-Ringer-buffer—KRBH). The buffer was removed and the cells were incubated for 15 min at room temperature in 10 μl KRBH (KRBH+10 mM HEPES, 5 mM NaHCO3, 0.1% (V/V) BSA) with 0.1 mM IBMX in deionized water containing increasing concentrations of test peptides. The reaction was stopped by the addition of lysis buffer (0.1% w/v BSA, 5 mM HEPES, 0.3% v/v Tween-20). After cell lysis for 10 min at room temperature, lysates were transferred to 384-well plates and 10 μl of acceptor/donorbead mixture as contained in the AlphaScreen™ cAMP Functional Assay Kit was added. After one hour of incubation at room temperature in the dark, the cAMP content was determined applying the AlphaScreen™ cAMP Functional Assay Kit from Perkin-Elmer according to manufacturer instructions. EC50 and relative efficacies compared to reference compounds (glucagon and GLP-1) were calculated applying computer aided curve fitting. The GLP-1/glucagon ratio is calculated as defined earlier.

In assay [3] the target is T3, endogenous GLP-1 receptors (Mus musculus, UniProt O35659).
T3 construct: Agonistic activity of the test compounds on endogenous GLP-1 receptors; endogenous in cells
T3 sequence (O35659 22-463): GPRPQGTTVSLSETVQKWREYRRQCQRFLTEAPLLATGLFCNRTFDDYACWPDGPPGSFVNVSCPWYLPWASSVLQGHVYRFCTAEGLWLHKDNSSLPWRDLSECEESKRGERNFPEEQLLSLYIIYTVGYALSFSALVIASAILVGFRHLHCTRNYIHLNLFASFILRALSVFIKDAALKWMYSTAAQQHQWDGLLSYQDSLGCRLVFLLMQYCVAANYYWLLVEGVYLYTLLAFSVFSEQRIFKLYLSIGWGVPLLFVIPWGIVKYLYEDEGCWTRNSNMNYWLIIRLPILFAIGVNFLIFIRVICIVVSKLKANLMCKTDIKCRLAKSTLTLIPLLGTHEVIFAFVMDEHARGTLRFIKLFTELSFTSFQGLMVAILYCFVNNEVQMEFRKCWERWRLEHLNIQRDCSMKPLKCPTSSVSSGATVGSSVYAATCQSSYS
Briefly: Agonistic activity on endogenous GLP-1 receptor (cAMP, murine insulinoma cell line). Conditions: intracellular cAMP, 15 minutes at 26° C.; read-out: EC50 GLP-1R (murine insulinoma cells). Here is the method:
Agonistic activity of the test compounds on endogenous GLP-1 receptors was determined using a murine insulinoma cell line. Intracellular cAMP was used an indicator of receptor activation.
Cells were cultured for 24 h at a density of 10,000 cells/well in a 384-well plate. Medium was removed and 10 μL KRBH buffer (NaCl 130 mM, KCl 3.6 mM, NaH2PO4 0.5 mM, MgSO4 0.5 mM, CaCl2) 1.5 mM) containing test compound or GLP-1 (at increasing concentrations from […] to 100 nM) or solvent control (0.1% (v/v) DMSO) was added to the wells for 15 minutes at a temperature of 26° C.
The cellular cAMP content is measured using the AlphaScreen cAMP Functional Assay Kit (Perkin Elmer). Measurement was performed using the Envision (PerkinElmer) according to manufacturer's recommendations.
All measurements were performed in quadruplicate.
Results were converted into cAMP concentrations using a cAMP standard curve prepared in KRBH buffer containing 0.1% (v/v) DMSO. The resulting cAMP curves were plotted as absolute cAMP concentrations (nM) over log (test compound concentration) and analyzed using the curve fitting program XLfit.
Parameters calculated to describe the both the potency as well as the agonistic activity of each test compound on the endogenous GLP-1 receptors were:
pEC50 (negative logarithmic value of EC50, a concentration resulting in a half-maximal elevation of cAMP levels, reflecting the potency of the test compound);
Percent control (% CTL)(% cAMP elevation for each test compound concentration normalized based on the GLP-1-induced maximum cAMP response (100% CTL)).

Assay [4] has as its target T4, human glucagon-like peptide 1 receptor (GLP-1R) (Homo sapiens, UniProt P43220).
T4 construct: expressed in transfected cells
Put plainly: GLP-1 receptor efficacy assay (cAMP AlphaScreen, CHO cells). Conditions: Table 1B; for Ratio GLP-1/Glucagon: EC50 [GLP-1R]/EC50 [Glucagon-R]; for EC50: same protocol, different laboratory, read-out: EC50 hGLP-1R CHO-K1.
Description: as §1, §2, §3
A general note: In Alpha technology, singlet oxygen from a donor bead excites a nearby acceptor bead.

*1 amine or outer side, *2 acyl side, *3 side chain or, on linkers, in order; H or OH if unused. Where a SMILES comes first, the peptide text is derived from it. Side-chain parts run from the residue outwards. [ ]: non-standard residue; d: D form. The star is where a group is joined. γGlu = O=C(O)[C@H](CCC(=O)[*:2])N[*:1]; Palmitoyl = CCCCCCCCCCCCCCCC(=O)*; Aib = CC(C)(N)C(=O)O

T1 sequence (P30082 27-485): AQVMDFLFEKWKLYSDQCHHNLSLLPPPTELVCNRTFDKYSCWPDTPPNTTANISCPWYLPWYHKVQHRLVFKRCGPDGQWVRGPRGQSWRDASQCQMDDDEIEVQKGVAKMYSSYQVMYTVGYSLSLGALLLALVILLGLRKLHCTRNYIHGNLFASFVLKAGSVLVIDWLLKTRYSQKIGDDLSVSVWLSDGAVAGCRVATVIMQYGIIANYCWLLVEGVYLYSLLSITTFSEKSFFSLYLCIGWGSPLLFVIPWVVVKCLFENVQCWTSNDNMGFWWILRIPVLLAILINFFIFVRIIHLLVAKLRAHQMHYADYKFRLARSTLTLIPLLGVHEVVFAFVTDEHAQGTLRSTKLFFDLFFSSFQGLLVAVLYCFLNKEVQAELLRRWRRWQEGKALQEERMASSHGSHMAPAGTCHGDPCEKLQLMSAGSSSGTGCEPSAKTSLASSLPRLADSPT
T4 sequence (P43220 24-463): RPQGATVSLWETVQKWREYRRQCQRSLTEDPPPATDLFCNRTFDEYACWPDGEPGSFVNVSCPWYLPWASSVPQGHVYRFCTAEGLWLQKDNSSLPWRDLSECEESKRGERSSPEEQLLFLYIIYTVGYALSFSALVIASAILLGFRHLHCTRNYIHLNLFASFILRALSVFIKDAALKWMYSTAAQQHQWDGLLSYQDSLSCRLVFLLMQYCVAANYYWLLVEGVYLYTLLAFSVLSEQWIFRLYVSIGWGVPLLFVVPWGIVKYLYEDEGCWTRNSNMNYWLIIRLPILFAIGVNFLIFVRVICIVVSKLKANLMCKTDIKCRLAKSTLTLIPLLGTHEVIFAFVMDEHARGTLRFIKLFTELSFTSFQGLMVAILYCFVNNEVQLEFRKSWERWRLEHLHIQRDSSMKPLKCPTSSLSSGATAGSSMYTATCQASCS

The term EC50 denotes the midpoint of the concentration-response curve. On to `CCCCCCCCCCCCCCCC(=O)N[C@@H](CCC(=O)NCCCC[C@H](NC(=O)[C@H](CO)NC(=O)[C@H](CCC(=O)O)NC(=O)[C@H](CC(C)C)NC(=O)[C@H](Cc1ccc(O)cc1)NC(=O)[C@H](CCCCN)NC(=O)[C@H](CO)NC(=O)[C@H](Cc1ccc(O)cc1)NC(=O)[C@H](CC(=O)O)NC(=O)[C@H](CO)NC(=O)[C@@H](NC(=O)[C@H](Cc1ccccc1)NC(=O)[C@@H](NC(=O)CNC(=O)[C@H](CCC(N)=O)NC(=O)C(C)(C)NC(=O)[C@@H](N)Cc1c[nH]cn1)[C@@H](C)O)[C@@H](C)O)C(=O)N[C@@H](C)C(=O)N[C@@H](C)C(=O)N[C@@H](CCC(=O)O)C(=O)N[C@@H](CC(=O)O)C(=O)N[C@@H](Cc1ccccc1)C(=O)N[C@H](C(=O)N[C@@H](CCC(=O)O)C(=O)N[C@@H](Cc1c[nH]c2ccccc12)C(=O)N[C@@H](CC(C)C)C(=O)N[C@@H](CCC(=O)O)C(=O)N[C@@H](CO)C(=O)N[C@@H](C)C(N)=O)C(C)C)C(=O)O` [Compound 24, H-H-Aib-QGTFTSDYSKYLES-K(Hexadecanoyl-isoGlu)-AAEDFVEWLESA-NH2] (H-H[Aib]QGTFTSDYSKYLESK([γGlu-Palmitoyl])AAEDFVEWLESA-NH2), for which the EC50 turned out to be 6.15 nM in assay [1], 0.92 nM in assay [2], 0.33 nM in assay [3] and 0.11 nM in assay [4]. Besides, the “Ratio GLP-1/Glucagon” value in assay [4] was 0.12.
For the molecule `CCCCCCCCCCCCCCCC(=O)N[C@@H](CCC(=O)NCCCC[C@H](NC(=O)[C@H](CO)NC(=O)[C@H](CCC(=O)O)NC(=O)[C@H](CC(C)C)NC(=O)[C@H](Cc1ccc(O)cc1)NC(=O)[C@H](CCCCN)NC(=O)[C@H](CO)NC(=O)[C@H](Cc1ccc(O)cc1)NC(=O)[C@H](CC(=O)O)NC(=O)[C@H](CO)NC(=O)[C@@H](NC(=O)[C@H](Cc1ccccc1)NC(=O)[C@@H](NC(=O)CNC(=O)[C@H](CCC(N)=O)NC(=O)C(C)(C)NC(=O)[C@@H](N)Cc1c[nH]cn1)[C@@H](C)O)[C@@H](C)O)C(=O)N[C@@H](C)C(=O)N[C@@H](C)C(=O)N[C@@H](CCC(=O)O)C(=O)N[C@@H](CC(=O)O)C(=O)N[C@@H](Cc1ccccc1)C(=O)N[C@H](C(=O)N[C@@H](CCC(=O)O)C(=O)N[C@@H](Cc1c[nH]c2ccccc12)C(=O)N[C@@H](CC(C)C)C(=O)N[C@@H](CCC(=O)O)C(=O)N[C@@H](CO)C(=O)N[C@@H](C)C(N)=O)[C@@H](C)CC)C(=O)O` [Compound 21, H-H-Aib-QGTFTSDYSKYLES-K(Hexadecanoyl-isoGlu)-AAEDFIEWLESA-NH2] (H-H[Aib]QGTFTSDYSKYLESK([γGlu-Palmitoyl])AAEDFIEWLESA-NH2), the EC50 was 3.4 nM in assay [1], 1.32 nM in assay [2], 0.3 nM in assay [3] and 0.12 nM in assay [4]. In assay [4], the “Ratio GLP-1/Glucagon” value is listed as 0.09.
For `CCCCCCCCCCCCCCCC(=O)N[C@@H](CCC(=O)NCCCC[C@H](NC(=O)[C@H](CO)NC(=O)[C@H](CCC(=O)O)NC(=O)[C@H](CC(C)C)NC(=O)[C@H](Cc1ccc(O)cc1)NC(=O)[C@H](CCCCN)NC(=O)[C@H](CO)NC(=O)[C@H](Cc1ccc(O)cc1)NC(=O)[C@H](CC(=O)O)NC(=O)[C@H](CO)NC(=O)[C@@H](NC(=O)[C@H](Cc1ccccc1)NC(=O)[C@@H](NC(=O)CNC(=O)[C@H](Cc1c[nH]cn1)NC(=O)C(C)(C)NC(=O)[C@@H](N)Cc1c[nH]cn1)[C@@H](C)O)[C@@H](C)O)C(=O)N[C@@H](C)C(=O)N[C@@H](C)C(=O)N[C@@H](CCC(=O)O)C(=O)N[C@@H](CCC(=O)O)C(=O)N[C@@H](Cc1ccccc1)C(=O)N[C@H](C(=O)N[C@@H](CCC(=O)O)C(=O)N[C@@H](Cc1c[nH]c2ccccc12)C(=O)N[C@@H](CC(C)C)C(=O)N[C@@H](CCC(=O)O)C(=O)N[C@@H](CO)C(=O)N[C@@H](C)C(=O)O)[C@@H](C)CC)C(=O)O` [Compound 17, H-H-Aib-HGTFTSDYSKYLES-K(Hexadecanoyl-isoGlu)-AAEEFIEWLESA-OH] (H-H[Aib]HGTFTSDYSKYLESK([γGlu-Palmitoyl])AAEEFIEWLESA-OH), in that order: 0.18 nM, 0.05 nM, 0.89 nM, 0.23 nM and 4.6.
